Laboratory results from patent US11400094B2, “2H-pyrazolo[4,3-d]pyrimidine compounds as toll-like receptor 7 (TLR7) agonists and methods and uses therefor” (BRISTOL-MYERS SQUIBB COMPANY, priority 2018, dated 2022).

target: T1, human TLR7 (Homo sapiens, UniProt Q9NYK1); assay: HEK-Blue TLR7 reporter assay (human TLR7 agonist activity, SEAP reporter); type: cell-based; settings: Table A, formula IIa compounds; HEK-Blue TLR7 cells, 18 h treatment, SEAP read-out
T1 construct: host or cells: HEK-Blue TLR7 cells (engineered human embryonic kidney cells)
T1 sequence (Q9NYK1 27-1049): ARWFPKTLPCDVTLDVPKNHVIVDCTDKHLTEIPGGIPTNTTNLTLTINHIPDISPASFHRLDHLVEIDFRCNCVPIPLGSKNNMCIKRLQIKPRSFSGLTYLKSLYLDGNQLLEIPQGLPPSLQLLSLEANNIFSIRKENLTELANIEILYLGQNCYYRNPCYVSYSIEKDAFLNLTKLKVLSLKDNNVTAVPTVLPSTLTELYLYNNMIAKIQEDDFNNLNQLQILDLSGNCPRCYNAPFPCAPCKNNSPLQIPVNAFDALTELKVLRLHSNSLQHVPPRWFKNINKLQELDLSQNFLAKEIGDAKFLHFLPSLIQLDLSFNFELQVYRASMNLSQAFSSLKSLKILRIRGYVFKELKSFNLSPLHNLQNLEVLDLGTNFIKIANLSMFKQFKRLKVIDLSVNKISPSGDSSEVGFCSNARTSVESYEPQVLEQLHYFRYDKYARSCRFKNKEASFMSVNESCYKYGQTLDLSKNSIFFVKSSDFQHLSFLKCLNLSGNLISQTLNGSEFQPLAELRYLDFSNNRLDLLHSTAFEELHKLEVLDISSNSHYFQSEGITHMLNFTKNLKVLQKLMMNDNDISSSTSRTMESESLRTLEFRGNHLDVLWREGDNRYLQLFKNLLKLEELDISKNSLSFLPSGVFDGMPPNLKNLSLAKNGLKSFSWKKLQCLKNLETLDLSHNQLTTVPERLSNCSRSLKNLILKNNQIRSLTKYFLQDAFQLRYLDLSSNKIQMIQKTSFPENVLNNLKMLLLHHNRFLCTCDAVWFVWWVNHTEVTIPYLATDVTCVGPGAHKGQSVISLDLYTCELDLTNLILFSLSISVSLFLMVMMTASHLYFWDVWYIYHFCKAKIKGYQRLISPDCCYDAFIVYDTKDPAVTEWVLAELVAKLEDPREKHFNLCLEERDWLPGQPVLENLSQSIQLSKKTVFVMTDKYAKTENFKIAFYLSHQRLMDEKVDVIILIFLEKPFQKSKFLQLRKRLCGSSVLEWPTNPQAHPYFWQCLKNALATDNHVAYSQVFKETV
Protocol: This procedure describes a method for assaying human TLR7 (hTLR7) agonist activity of the compounds disclosed in this specification.
HEK-Blue™ TLR7 cells were added to each well of a 384-well tissue-culture plate (15,000 cells per well) and incubated 16-18 h at 37° C., 5% CO2. […] After 18 h treatment ten microliters of freshly-prepared Quanti-Blue™ reagent (Invivogen) was added to each well, incubated for 30 min (37° C., 5% CO2) and SEAP levels measured using an Envision plate reader (OD=620 nm).

Row | SMILES | EC50
1 | CCCCNc1nc(N)nc2cn(Cc3ccc(CNCCO)cc3OC)nc12 [IIa-03] | 1 µM
2 | CCCCNc1nc(N)nc2cn(Cc3ccc(CNC4(CO)CCCC4)cc3OC)nc12 [IIa-28] | 0.43 µM
3 | CCCCNc1nc(N)nc2cn(Cc3ccc(CN4CCN(C)CC4)cc3OC)nc12 [IIa-36] | 0.52 µM
4 | CCCCNc1nc(N)nc2cn(Cc3ccc(CN4CCCNCC4)cc3OC)nc12 [IIa-29] | 0.76 µM
5 | CCC[C@@H](CCO)Nc1nc(N)nc2cn(Cc3ccc(CO)cc3OC)nc12 [IIa-35] | 2.1 µM
6 | CCCCNc1nc(N)nc2cn(Cc3ccc(CNC4CCC(O)CC4)cc3OC)nc12 (stereo not shown) [IIa-08] | 0.65 µM
7 | CCCCNc1nc(N)nc2cn(Cc3ccc(CNC4CCC4)cc3OC)nc12 [IIa-01] | 0.34 µM
8 | CCCCNc1nc(N)nc2cn(Cc3ccc(CN4CCCCC4)cc3OC)nc12 [IIa-31] | 0.41 µM
9 | CCCCNc1nc(N)nc2cn(Cc3ccc(CNCCS(C)(=O)=O)cc3OC)nc12 [IIa-11] | 0.54 µM
10 | CCCCNc1nc(N)nc2cn(Cc3ccc(CN4CCOCC4)cc3OC)nc12 [IIa-30] | 0.58 µM
11 | CCCCNc1nc(N)nc2cn(Cc3ccc(CNCc4ccncc4)cc3OC)nc12 [IIa-05] | 0.45 µM
12 | CCCCNc1nc(N)nc2cn(Cc3ccc(CNC(C)(C)C)cc3OC)nc12 [IIa-34] | 0.55 µM
13 | CCCCNc1nc(N)nc2cn(Cc3ccc(CNC4CC(O)C4)cc3OC)nc12 (stereo not shown) [IIa-09] | 0.42 µM
14 | CCCCNc1nc(N)nc2cn(Cc3ccc(CN4CCNCC4)cc3OC)nc12 [IIa-02] | 0.51 µM
15 | CCCCNc1nc(N)nc2cn(Cc3ccc(CN4CC5CC4CN5)cc3OC)nc12 (stereo not shown) [IIa-27] | 0.71 µM
16 | CCCCNc1nc(N)nc2cn(Cc3ccc(CN4CCCC4)cc3OC)nc12 [IIa-32] | 0.6 µM
17 | CCCCNCc1ccc(Cn2cc3nc(N)nc(NCCCC)c3n2)c(OC)c1 [IIa-33] | 0.81 µM
18 | CCCCNc1nc(N)nc2cn(Cc3ccc(CNc4ccc(CCO)cc4)cc3OC)nc12 [IIa-25] | 0.88 µM
19 | CCCCNc1nc(N)nc2cn(Cc3ccc(CNCCCN)cc3OC)nc12 [IIa-04] | 1.6 µM
20 | CCCCNc1nc(N)nc2cn(Cc3ccc(CNCC4COC4)cc3OC)nc12 [IIa-07] | 0.61 µM
21 | CCCCNc1nc(N)nc2cn(Cc3ccc(CO)cc3OC)nc12 [IIa-14] | 0.55 µM

Continued, values first:

Row | EC50 | SMILES
22 | 0.28 µM | CCCCNc1nc(N)nc2cn(Cc3ccc(CNCC(C)(C)O)cc3OC)nc12 [IIa-20]
23 | 0.18 µM | CCCCNc1nc(N)nc2cn(Cc3ccc(CN4CCN(CCO)CC4)cc3OC)nc12 [IIa-17]
24 | 0.19 µM | CCCCNc1nc(N)nc2cn(Cc3ccc(Cn4ccnc4)cc3OC)nc12 [IIa-21]
25 | 0.3 µM | CCCCNc1nc(N)nc2cn(Cc3ccc(CNC4COC4)cc3OC)nc12 [IIa-15]
26 | 0.303 µM | CCCCNc1nc(N)nc2cn(Cc3ccc(CN4CC(CCO)C4)cc3OC)nc12 [IIa-23]
27 | 0.27 µM | CCCCNc1nc(N)nc2cn(Cc3ccc(CNCc4ccc(N)cc4)cc3OC)nc12 [IIa-10]
28 | 0.2 µM | CCCCNc1nc(N)nc2cn(Cc3ccc(CNCCOC)cc3OC)nc12 [IIa-22]
29 | 0.32 µM | CCCCNc1nc(N)nc2cn(Cc3ccc(CNC4CCOCC4)cc3OC)nc12 [IIa-19]
30 | 0.194 µM | CCCCNc1nc(N)nc2cn(Cc3ccc(CN(C)CCCO)cc3OC)nc12 [IIa-26]
31 | 0.13 µM | CCCCNc1nc(N)nc2cn(Cc3ccc(CNCC4CC(O)C4)cc3OC)nc12 (stereo not shown) [IIa-24]

same assay, conditions: Table B, formula IIb compounds; HEK-Blue TLR7 cells, 18 h treatment, SEAP read-out

Row | EC50 | SMILES
32 | 2.1 µM | CCCCNc1nc(N)nc2cn(Cc3ccc(Oc4ccc(CNCCO)cc4)nc3)nc12 [IIb-04]
33 | 1.6 µM | CCCCNc1nc(N)nc2cn(Cc3ccc(Oc4ccc(CNCCO)cc4)cc3OC)nc12 [IIb-02]
34 | 0.82 µM | CCCCNc1nc(N)nc2cn(Cc3ccc(Oc4ccc(CO)cc4)nc3)nc12 [IIb-01]
